From patent US20170367338A1, “COMPOSITIONS AND METHODS FOR IMPROVING AGRONOMIC CHARACTERISTICS OF PLANTS” (MONSANTO TECHNOLOGY LLC, priority 2014, published 2017)
≈ marks a conversion by molar mass, not a printed value. Where two headings read alike, the source gives them in different places. Marks after values point to notes of the source that are not given here.

Legend:
Meloidogyne incognita [1] = experiment: M. incognita miniaturized greenhouse assay on cucumber seedlings; format: in vivo
Description: The test compound is dissolved in an acetone solution and added to water. A sprouted cucumber seedling is placed into a vial with dry sand and the water-chemical solution is added immediately. Twenty four hours later Meloidogyne incognita eggs are added to the vials and 10 to 12 days later the roots are evaluated for nematode galling.
Cucumber seeds are sprouted for 3 days in moist paper towels. Acceptable sprouts should be 3 to 4 cm long with several lateral roots just emerging. Stock solutions of chemistry are prepared in a mixture of acetone and Triton X100 (412 mg in 500 mL) to a final concentration of 5 mg/mL. The chemical stock solution is then added to 10 mL deionized water plus 0.015% Triton X100 and mixed thoroughly. This is enough to test each condition in triplicate. Ten mL dry sand is added to each vial. At this time the solubility of the chemistry is visually determined and recorded as either ppt (large precipitates) or cloudy (fine precipitates). Seedlings are planted by tilting the vial and laying the seedling in the correct orientation so that the cotyledons are just above the sand and then tilting back to cover the radicles with sand. 3.3 ml water/chemical mix is added to each vial and the vials placed in racks under fluorescent light banks. The vials are inoculated two days after planting by adding 500 vermiform M. incognita eggs to each vial in 50 uL of deionized or spring water. The vials are then kept under the fluorescent lamps at ambient room temperature and watered as needed with 1mL deionized water, usually twice during duration of test. Harvest of the cucumber plants is done 10 to 12 days after inoculation by washing sand off the roots. A root gall rating and visual phytotoxicity rating is assigned using the following scales: Gall rating scale (Gall: % root mass galled): 0=0-5%; 1=6-20%; 2=21-50%; and 3=51-100%. The average of the triplicate gall rating is then calculated: green=0.00-0.33 (no galls); yellow=0.67-1.33 (mild galling); orange=1.67-2.33 (moderate galling); red=2.67-3.00 (severe galling). Visual phytotoxicity scale is also assigned (Vis. tox; visual reduction in root mass compared to the control): rs1=mild stunting; rs2=moderate stunting; rs3=severe stunting.

Meloidogyne incognita [2] = experiment: Fall nematicidal field test on squash; conditions: for RG28 % root galls at 28 days after treatment / RG43 % root galls at 43 days after treatment / RW28 root weight at 28 days after treatment / RW43 root weight at 43 days after treatment / TW28 top weight at 28 days after treatment: squash
Description: The soil was a native prairie/pasture covering silty clay loam soil. […] Total volume of each hole was about 1.2 cubic feet. […] Holes were filled and then re-filled 5 days later after settling. […] Organic matter was 0.2% and pH was 6.8.
Treatments were arranged in a block design with the blocks laid out perpendicular to the primary slope and parallel to secondary slope. There are 7 inoculated controls and 5 non-inoculated controls and the distributions of disease severity appeared independent of location.
The resultant mix is the same as used in the standard greenhouse assays (10% acetone, 0.05% X100). The oxamyl treatments were prepared from Vydate 2L formulated the same way. The 500 ml was placed in a watering can and the entire volume was evenly sprinkled over the surface of the plot. No runoff occurred and pooling, if any, was short lived. The final drench volume was 0.58 ml/cm^2, compared to 0.2 ml/cm^2 used in our greenhouse, however the microplots are much deeper so the drench volume applied per soil volume treated is roughly the same.
Meloidogyne incognita eggs were harvested over a two week period and stored at approximately 5° C. until needed. A stock of 5.6 million vermiform eggs was adjusted to 9000/m1 in 620 ml. One day after treatment, two holes were made in each plot about 7 cm apart and equidistant from the squash plants. Five ml of egg suspension was pipetted into each hole, which was then sealed and the plot lightly watered. A total of 90,000 vermiform eggs were added to each plot.
The first root evaluation was at 28 DAT. The tops were cut off and weighed immediately in the field, and the roots were carefully dug out so as not to disturb the remaining plant.

Meloidogyne incognita [3] = experiment: Summer field evaluation of pre-plant incorporated compounds on squash; format: in vivo
Description: Test plots of 33 cm diameter holes were bored 41 cm deep into clay soil and filled with a mixture of 80% sand and 20% silt loam soil. Technical compound for each treatment was dissolved in 50 ml acetone containing 250 ul of Triton X-100 surfactant. This solution was added to 450 ml water and poured onto 95 liters of sand/soil mixture in a rotating drum mixer. While continuing to rotate the mixing drum 66 grams of chopped, galled, tomato roots was added and thoroughly distributed. The treated soil was sufficient to fill the top 15 cm of each of the 6 replicate plots, thus simulating a PPI treatment. The plots were then watered lightly and a mixture of M. incognita eggs and larvae were injected 5 cm deep at 5 points within the plot (100k eggs/larvae in 10m1 per plot). Three-week old squash (cv. Liberator III) with 1 fully expanded true leaf was planted 4 days after soil treatment, one per plot.

[4] = test system: Heterodera glycines (SCN); experiment: Seed treatment test of soybean cyst nematode on soybean; format: in vivo; conditions: Heterodera glycines, 672 h, read-out: percent cyst reduction relative to control blank treatment
Description: For a given concentration the chemical is dissolved in 500 ul of acetone and one gram of cucumber seed (RKN test) or soybean seed (SCN test) is added (e.g., 20 mg active ingredient in 500 ul acetone plus 1 gram of seed). The seed solutions are agitated until all seeds were thoroughly covered with the chemical solution. The acetone is then allowed to evaporate by air drying the seeds. The seeds are planted in 2-inch pots containing sandy soil and then the pots are inoculated with 1000 Meloidogyne incognita (RKN) or 1000 Heterodera glycines (SCN) eggs per pot three days after planting. Plants are rated for galling 14 days after egg inoculation for RKN or 28 days after egg inoculation for SCN.

[5] = test system: soybean cyst nematode (SCN); experiment: SCN greenhouse sand assay on soybean plants; format: in vivo; conditions: Glycine max, 672 h, read-out: percent control (cyst number reduction) relative to the control blank treatment; for pest or weed control at 2000 g/ha: 2 kg/ha
Description: Soybeans seeds are planted in 100% sand in two inch square plastic pots. Chemical treatment is done when the soybeans show the first trifoliate beginning to emerge about 10 to 12 days after planting. At least four hours after chemical application the nematode soybean cyst nematode (SCN) eggs are applied and 28 days after the egg inoculation the test is harvested.
One milligram of chemistry per four pots is equal to one kilogram per hectare of chemical. A standard test uses four replications. For rates above 2 kg/ha, the desired amount of chemical is weighed into a 30 ml vial (example: 8 kg/ha rate =8 mg chemical in 30 ml vial). The chemical is dissolved in 2 ml of appropriate solvent, generally acetone. For rates below 2 kg/ha, 2 milligrams of chemistry is weighed into the vial and dissolved in 2 ml of the solvent. The appropriate amount of chemical concentrate is then pipetted into a separate 30 ml vial and solvent is added to bring the volume to 2 ml (example 0.5 kg/ha=0.5 ml of concentrate+1.5 ml solvent). Each dissolved concentrate is then brought to a total of 20 milliliters using 0.05% Triton X 100 surfactant solution.
Pots to be treated are moist but not saturated. To each of four pots, five milliliters of the appropriate chemical solution is pipetted to the media surface making sure to avoid contact with the base of the plant. Immediately following chemical application, using a mist nozzle, the pot surface is wetted sufficiently to saturate the pot watering in the chemistry. The chemical application is done in the morning.
Nematode eggs, either SCN or RKN, are added to distilled water to create a concentration of 1000 vermiform eggs […]. At least four hours after chemical treatment the eggs are applied to the treated pots plus non-treated check plants. A small hole about 1 cm deep is punched into the pot surface. One milliliter of the nematode egg slurry is pipetted into the hole. Immediately afterwards the hole is gently covered. Watering of the test plants is then restricted to only water as needed to prevent wilt for a period of 24 hours. After the 24 hour restricted watering, normal sub-irrigation watering is done for the duration of the test.

[6] = format: in vivo; conditions: 500 mg/kg oral, three female mice, observed up to 14 days
Description: Acute oral toxicity testing was performed in mice in accordance with test method P203.UDP, as administered by Eurofins/Product Safety Laboratories (Dayton, New Jersey). CD-1/Swiss derived albino mice were obtained and group housed in suspended solid bottom caging. The mice were fed rodent chow and filtered tap water was supplied ad libitum. Following acclimation to the laboratory setting, a group of animals was fasted overnight by removing food from the cages. After the fasting period, three female mice were selected based on vitality and initial body weights. The individual compound doses were calculated from these body weights.
The test substance was prepared as a 1% (50 mg/kg) or 5% (500 mg/kg) weight to weight (w/w) mixture in a 0.5% w/w solution of carboxymethylcellulose (CMC) in distilled water. A tissue homogenizer was used to create a homogeneous mixture. A dose of 50 or 500 mg/kg was administered to three healthy mice per dose level by oral intubation using a ball-tipped gavage needle attached to a syringe. After administration, the animals were returned to their cages, and feed was replaced immediately after dosing.
Body weights were recorded prior to initiation and on Days 7 and 14 or a soon as possible after death.

C. elegans = experiment: Three day C. elegans well assay; format: in vivo; conditions: Caenorhabditis elegans, L1 larvae
Description: Various compounds were tested for nematicidal activity against C. elegans using contact assays in wells. The assays were performed as described below. The test compounds were solubilized in DMSO at 10 mg/ml to create 100× stock solutions. A dilution series was created by diluting the stock solution with DMSO. For each well assay 4 ul of the appropriate dilution is added to a well of a test plate. A 400 ul aliquot of bacterial stock (in M9 buffer with ampicillin and nystatin) are added to each well of the test plate. Worms are added and the test plate placed on a rotary shaker and held at 20° C. Worms are examined and scored at 4 hrs, 24 hrs, 48 hrs and 72 hours. L1 worms and L4 worms were used in the assay. L1 worms are prepared by plating eggs on a plate without a bacterial feeding layer. The eggs hatch and arrest at the L1 stage. This L1 stage population is then used to create a stock for the experiments. To create an L4 stage stock a small number of worms are taken from an overgrown and starved plate of worms and seeded on a plate with a bacterial feeder layer. A 25 ul aliquot of worms is added to each well in the assay.

Compound: c1ccc(-c2cc(-c3ccco3)n[nH]2)cc1 [3-(furan-2-yl)-5-phenyl-1H-pyrazole]
- nematicidal activity (Meloidogyne incognita [1]; text reference to table 1D, 8 ppm and 1 ppm): at 8 ppm but not 1 ppm

Compound: CNC(=O)O/N=C(\SC)C(=O)N(C)C [Oxamyl]
- RG28 % root galls at 28 days after treatment (Meloidogyne incognita [2]; 2 kg ai/ha): 45.0%
- RG43 % root galls at 43 days after treatment (Meloidogyne incognita [2]; 2 kg ai/ha): 42.3%
- RW28 root weight at 28 days after treatment (Meloidogyne incognita [2]; 2 kg ai/ha): 5.6
- RW43 root weight at 43 days after treatment (Meloidogyne incognita [2]; 2 kg ai/ha): 14.3
- TW28 top weight at 28 days after treatment (Meloidogyne incognita [2]; 2 kg ai/ha): 136.8
- RG28 % root galls at 28 days after treatment (Meloidogyne incognita [2]; 5 kg ai/ha): 10.5%
- RG43 % root galls at 43 days after treatment (Meloidogyne incognita [2]; 5 kg ai/ha): 17.3%
- RW28 root weight at 28 days after treatment (Meloidogyne incognita [2]; 5 kg ai/ha): 6.6
- RW43 root weight at 43 days after treatment (Meloidogyne incognita [2]; 5 kg ai/ha): 12.7
- TW28 top weight at 28 days after treatment (Meloidogyne incognita [2]; 5 kg ai/ha): 232.1
- 0-3 vigor 16DAP (Meloidogyne incognita [3]; 4 kg/ha PPI, squash): 2.7
- 0-3 vigor 21DAP (Meloidogyne incognita [3]; 4 kg/ha PPI, squash): 2.5
- feeder root (3 = ave) 31DAP (Meloidogyne incognita [3]; 4 kg/ha PPI, squash): 3.0
- gall % 31DAP (Meloidogyne incognita [3]; 4 kg/ha PPI, squash): 85%
- root wgt (g) 31DAP (Meloidogyne incognita [3]; 4 kg/ha PPI, squash): 37.0 g
- top wgt (lbs) 31DAP (Meloidogyne incognita [3]; 4 kg/ha PPI, squash): 1.16 lbs
- total fruit (lbs) (Meloidogyne incognita [3]; 4 kg/ha PPI, squash): 1.09 lbs
- pest or weed control at 0.375 mg/g [4]: -4%
- pest or weed control at 1.5 mg/g [4]: 71%
- gall ratings (Meloidogyne incognita [1]; 1 ppm (oxamyl), Table 1A): 0.67
- 1 ppm gall ratings (Meloidogyne incognita [1]; Table 1B test a): 0.67
- 1 ppm gall ratings (Meloidogyne incognita [1]; Table 1B test b): 1 (1=6-20%)
- 1 ppm gall ratings (Meloidogyne incognita [1]; Table 1B test c): 1.33
- 1 ppm gall ratings (Meloidogyne incognita [1]; Table 1B test d): 1.33
- 1 ppm gall ratings (Meloidogyne incognita [1]; Table 1B test e): 1 (1=6-20%)
- 1 ppm gall rating (Meloidogyne incognita [1]; Table 1C test a): 1.33
- 1 ppm gall rating (Meloidogyne incognita [1]; Table 1C test b): 1 (1=6-20%)
- 1 ppm gall rating (Meloidogyne incognita [1]; Table 1C test c): 0.67^c
- 1 ppm gall rating (Meloidogyne incognita [1]; Table 1D test a): 1.33
- 1 ppm gall rating (Meloidogyne incognita [1]; Table 1D test b): 1 (1=6-20%)

Compound: c1ccc(-c2cnc(-c3cccs3)o2)cc1 [compound 4417]
- RW28 root weight at 28 days after treatment (Meloidogyne incognita [2]; 2 kg ai/ha): 5.3
- RW43 root weight at 43 days after treatment (Meloidogyne incognita [2]; 2 kg ai/ha): 16.4
- TW28 top weight at 28 days after treatment (Meloidogyne incognita [2]; 2 kg ai/ha): 97.5
- Leaf diameter of the first true leaves (Meloidogyne incognita [2]; 2 kg/ha, five days after treatment (5 DAT)): slight reduction
- phytotoxicity (Meloidogyne incognita [2]; 2 kg/ha, two days after treatment, squash seedlings): slight phytotoxicity
- pest or weed control at 2000 g/ha ([5]; test b): 94%
- acute oral toxicity: mortality and signs [6]: One animal died within four days

Compound: Clc1ccc(-c2nnc(-c3cccs3)o2)cc1 [compound 4559]
- RW28 root weight at 28 days after treatment (Meloidogyne incognita [2]; 2 kg ai/ha): 6.4
- RW43 root weight at 43 days after treatment (Meloidogyne incognita [2]; 2 kg ai/ha): 13.2
- TW28 top weight at 28 days after treatment (Meloidogyne incognita [2]; 2 kg ai/ha): 150.8
- control of root galling compared with oxamyl at an equivalent rate (Meloidogyne incognita [2]; 43 day time point): significantly better than oxamyl
- pest or weed control at 2000 g/ha ([5]; test a): 98%

Compound: Fc1ccc(-c2cnc(-c3cccs3)o2)cc1 [compound 4775]
- pest or weed control at 2000 g/ha ([5]; test b): 95%
- acute oral toxicity: mortality and signs [6]: all animals survived

Compound: FC(F)(F)c1cccc(-c2noc(-c3ccco3)n2)c1 [compound 5181]
- pest or weed control at 2000 g/ha ([5]; test a): 100%

Compound: c1cncc(-c2noc(-c3ccco3)n2)c1 [compound 5292]
- pest or weed control at 2000 g/ha ([5]; test a): 92%

Compound: Cc1occc1-c1nc(-c2ccc(Cl)cc2)no1 [compound 5867]
- 1 ppm gall rating (Meloidogyne incognita [1]; Table 1C test a): 1 ^a (1=6-20%)

Compound: COc1ccc(-c2noc(-c3ccoc3C)n2)cc1 [compound 5869]
- 1 ppm gall rating (Meloidogyne incognita [1]; Table 1C test a): 1 ^a (1=6-20%)

Compound: Cc1cc(Br)ccc1-c1nsc(-c2ccco2)n1 [compound 5939]
- pest or weed control at 100 g/ha ([5]; 0.1 kg/ha, test d): 64%
- pest or weed control at 250 g/ha ([5]; 0.25 kg/ha, test d): 88%
- EC50 (C. elegans; 24 h, one day of exposure, read-out: EC50 L1 1D): 0.4 mg/L (≈ 1.25 µM)
- EC50 (C. elegans; 48 h, two days of exposure, read-out: EC50 L1 2D): 0.4 mg/L (≈ 1.25 µM)
- EC50 (C. elegans; 72 h, three days of exposure, read-out: EC50 L1 3D): 0.4 mg/L (≈ 1.25 µM)

Compound: Clc1ccc(-c2nsc(-c3ccco3)n2)c(Cl)c1 [compound 5960]
- control of M. incognita by PPI application (Meloidogyne incognita [3]; 4 kg/ha): significant control
- acute oral toxicity: mortality and signs [6]: all animals survived
